Laboratory results taken from patent US7863415B2 (The Regents of the University of California, priority 2004, dated 2011).
“Also recorded” adds a separate entry of the source. Starred links: 1 amine or outer side, 2 acyl side, 3 side chain; linkers in the order of their positions; H or OH if unused. Non-standard residues stand in square brackets, D forms with d. Residues, ends and D or L forms follow the SMILES beside them. X1 = N=C(N)NC(=O)c1nc(Cl)c(N(CC(=O)[*:2])[*:1])nc1N

Assays:
[1] = test system: U87 cells; assay: Intracellular translocation into U87 cells by fluorescence microscopy; settings: 50 μM; 90 and 180 min; 380 nm excitation, 510 nm emission
From the text: Fluorescence Microscopy. […] Excitation light was provided by a xenon arc lamp coupled to the Polychrome IV scanning monochromator (Till Photonics; Grafelfing, Germany) that alternately excites with different wavelengths. Excitation light was delivered by fiber optics to cells through the epifluorescence port of a Nikon E600 microscope coupled to a Nikon Fluor 60× water immersion lens. The detector was an Orca II-ER CCD digital camera (Hamamatsu USA; Bridgewater, N.J.), which is controlled by C-Imaging Simple PCI software (Compix; Cranberry Township, Pa.).
Intracellular emission intensities were collected in regions of interest (ROI) from an average of 4-8 cells/field using Simple PCI imaging software. […] Images were captured as TIFF files (C-imaging Simple PCI software), and light and fluorescent images of the same field were imported in Photoshop 6.0 and vector graphics added using Illustrator 9.0.1 (Adobe; San Jose, Calif.).

[2] = Incubation in buffer solutions without enzymes, LC-MS; type: in vitro ADME
Protocol: (§1) Compound 3b is a C5am-Gly-peptide conjugate containing two D-amino acids, and compound 3c is a C5am-Gly-peptide conjugate coupled to a peptide to generate an analog of opioid peptides that cross the blood brain barrier (BBB). The resultant conjugates (compounds 3a-c) were tested for selective cleavage by the brain peptidase enkephalinase (neutral endopeptidase 24.11; Calbiochem) via incubation for 24 h in the presence or absence of the enzyme, and aliquots from the reaction solutions were then analyzed by LC-MS to identify the C5am-Gly conjugate (compound 3a), starting material, and enzymatic cleavage products (see, Scheme 3). As negative control experiments, the conjugates were analyzed following treatment with (1) bovine pancreatic trypsin (Calbiochem) or (2) the buffer solutions without enzymes.

[3] = test system: enkephalinase (endopeptidase 24.11); assay: Enzyme digestion with enkephalinase, LC-MS/ESI; type: in vitro ADME, porcine; settings: for Conclusion (Peptidase: Enkephalinase): 10 μM conjugate, 10 units enzyme, 25° C., pH 7.4, 24 h; for Cleavage by enkephalinase (release of compound 3a): 24 h incubation, LC-MS
Protocol: as §1
(§2) Enzyme digestion. Endopeptidase 24.11 (neutral, porcine kidney) and trypsin (bovine pancreas) were purchased from CalBiochem (San Diego, Calif.) and used as received. Enzymatic cleavage experiments using endopeptidase 24.11 were conducted at 25° C. in a pH 7.4 Tris buffer (150 mM NaCl, 50 mM Tris, 0.1% Triton X-100) as recommended by the manufacturer (see also, Barnes et al., J. Neurochem., 64:1826-1832 (1995), Gafford et al., Biochemistry, 22:3265-3271 (1983)). Similarly, trypsin cleavage experiments were conducted at 25° C. in pH 7.4 Dulbecco's phosphate buffered saline (Gibco; Grand Island, N.Y.). The digestion reactions included 10 μM of the amiloride-peptide conjugate and 10 units of enzyme in 250 μL of buffer. Direct aliquots were analyzed by LC-MS/ESI following a 24 hour incubation period.
(§3) Enzyme Digestion Study. Compounds 3a-d were each incubated at 25° C. with 10 units of enkephalinase (endopeptidase 24.11) to determine their susceptibility towards enzymatic cleavage. Reaction aliquots were taken following a 24 hour incubation period and analyzed directly by LC-MS/ESI (Thermo Finnigan LCQ) for the presence of the starting material and the targeted cleavage product, compound 3a (C5am-Gly). […] Since there are no basic amino acid residues in compounds 3a-d, trypsin was employed as a negative control to ensure that any observed cleavage products could be ascribed only to endopeptidase-specific interactions (Jackson, Protein Science, 8:603-613 (1999)).

[4] = test system: U87 glioma cells; assay: Glioma cell proliferation, manual cell counts with trypan blue; type: cell-based, human
Protocol: C(5)-amiloride glycine conjugate (C5am-Gly) inhibits NHE1 in U87 glioma cells and is antiproliferative. […] The inhibitory activity of C5am-Gly against NCX was tested and a systematic log dose screen of C5am-Gly against a panel of glioma cells and primary astrocytes was performed.
Manual cell counts with dye exclusion assays. Identical concentrations of glioma cells can be plated on 60 mm dishes and grown until 50% confluent. Following drug treatments, media containing floating cells can be collected in suspension. Adherent cells can be rinsed in calcium- and magnesium-free phosphate-buffered saline (PBS-CMF) and removed by incubation with 0.25% v/v trypsin for 5 minutes (37° C.). Cell suspensions can be combined with the floating fraction and centrifuged at 350×g for 5 minutes. The resulting pellet (one per dish) can be resuspended in equal volumes of PBS-CMF with 0.4% trypan blue and/or 500 nM Sytox Green. 10 μL aliquots of the suspension can be plated on a hemocytometer, and cells can be counted 5 minutes after staining. Simultaneous staining of cells with trypan (TB) and Sytox Green (SG) can be visualized by switching between visible light and fluorescein green.

[5] = target: NHE1 (Homo sapiens, UniProt P19634); assay: NHE1 inhibition: sodium-dependent pHi recovery in BCECF-loaded U87 glial cells after ammonium chloride pre-pulse; type: cell-based; parameters: Sodium-dependent proton extrusion in U87 glial cells and in primary astrocytes is mediated by the type 1 sodium proton exchanger (NHE1); endogenous in cells; host or cells: U87 human glioma cells
Protocol: Intracellular pH Measurements. U87 glial cells were grown on glass coverslips and incubated for 30 minutes at 37° C. with the pH-sensitive dye, 2′,7′-bis(2-carboxyethyl)-5(6)-carboxyfluorescein-AM (BCECF-AM; Molecular Probes, OR). Cells were rinsed with HEPES Ringer buffer twice and maintained at 37° C. for an additional 15 minutes to permit intracellular hydrolysis of the AM ester; trapping BCECF within the cells. Cells on coverslips were placed in a Hitachi F2000 fluorescent spectrophotometer and excited at 440 and 507 nm with fluorescent emissions recorded at 535 nm (Hegde et al., J. Pharmacol. Exp. Ther., 310:67-74 (2004)).
NHE inhibition by compounds 3a and 3c was evaluated using intracellular pH (pHi) measurements in the U87 human glial cell line (Hegde et al., supra). Cells loaded with BCECF were then acidified using the ammonium chloride pre-pulse method (Roos et al., Physiol Rev, 61:296-434 (1981)). The subsequent sodium-dependent recovery of pHi by these cells in the absence of bicarbonate was monitored using a spectrofluorometer. Sodium-dependent proton extrusion in U87 glial cells and in primary astrocytes is mediated by the type 1 sodium proton exchanger (NHE1) (McLean et al., supra; Hegde et al., supra) and was monitored in the presence or absence of compound 3a or 3c.
IC50 drug determinations for NHE1. This method utilizes spectrofluorometric measurements of [H^+]i as described above. The ammonium chloride prepulse method can be used to acidify cells in the presence of HR that is sodium-substituted with NMDG. Perfusion of the acidified cells with HR that contains sodium causes activation of NHE1 that is inhibited in a concentration-dependent fashion as described in McLean et al., supra.

[6] = target: T1, trypsin (Bos taurus, UniProt P00760); assay: Enzyme digestion with trypsin (negative control), LC-MS/ESI; type: in vitro ADME, bovine; settings: for Conclusion (Peptidase: Trypsin): 10 μM conjugate, 10 units enzyme, 25° C., pH 7.4, 24 h; for Cleavage by trypsin (release of compound 3a): 24 h incubation, LC-MS
T1 construct: purchased CalBiochem (San Diego, Calif.); host or cells: bovine pancreas
T1 sequence (P00760 24-246): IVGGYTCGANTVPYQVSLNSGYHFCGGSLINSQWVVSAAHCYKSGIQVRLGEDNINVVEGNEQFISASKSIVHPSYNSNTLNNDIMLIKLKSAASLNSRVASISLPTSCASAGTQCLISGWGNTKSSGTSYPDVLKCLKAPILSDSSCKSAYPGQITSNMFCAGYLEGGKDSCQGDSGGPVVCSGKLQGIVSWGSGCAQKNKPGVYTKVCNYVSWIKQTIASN
Protocol: as §1, §2, §3

[7] = test system: U87 glioma cells; assay: Glioma cell death, manual cell counts with trypan blue exclusion
[8] = test system: glioma in poorly vascularized tumor regions; assay: Single intracerebral infusion of DCB in tumor-bearing animals; type: in vivo; settings: 10 pmol over 2 h
Protocol: Unfortunately, DCB was associated with 4 of 5 animals dying during the following 12 to 24 h.

[9] = test system: [Ca^2+]i in U87 glioma cells; assay: [Ca2+]i in U87 glioma cells loaded with fura-2AM, quantitative fluorescent microscopy; type: cell-based, human
Protocol: Therefore, the levels of [Ca^2+]i in U87 glioma cells loaded with fura-2AM were measured using quantitative fluorescent microscopy. […] The ATP-dependent calcium regulatory mechanisms within U87 glioma cells containing fura-2 were then examined. […] ATP synthase operates in reverse when milimolar concentrations of calcium are stored by the mitochondrion (Nicholls, Bioenergetics, 3, Academic Press, London, 3rd edition (2002)).
Quantitative fluorescent microscopy of [Ca^2+]i levels. [Ca^2+]i levels can be measured in cells loaded with either fura-2A or fura-2FFAM under the conditions described above.

[10] = test system: glioma cells and primary astrocytes; assay: Cell entry by confocal microscopy; type: in vitro ADME
[11] = test system: NHE1 and NCX; settings: NHE1 and NCX inhibitors from the literature; cited from earlier work
[12] = test system: T2, Compound 3c (C5am-Gly-Gly-Gly-Gly-Phe-Leu-OH)
T2 sequence: GGGGFL

[13] = test system: T3, Compound 3d (C5am conjugate of the peptide Gly-Gly-Gly-Phe-Leu)
T3 sequence: GGGFL

[14] = test system: T4, Compound 3b (C5am-Gly-D-Ala-Gly-Phe-D-Leu-OH)
T4 sequence: GXGFX

NHE1, sequence (P19634 whole entry): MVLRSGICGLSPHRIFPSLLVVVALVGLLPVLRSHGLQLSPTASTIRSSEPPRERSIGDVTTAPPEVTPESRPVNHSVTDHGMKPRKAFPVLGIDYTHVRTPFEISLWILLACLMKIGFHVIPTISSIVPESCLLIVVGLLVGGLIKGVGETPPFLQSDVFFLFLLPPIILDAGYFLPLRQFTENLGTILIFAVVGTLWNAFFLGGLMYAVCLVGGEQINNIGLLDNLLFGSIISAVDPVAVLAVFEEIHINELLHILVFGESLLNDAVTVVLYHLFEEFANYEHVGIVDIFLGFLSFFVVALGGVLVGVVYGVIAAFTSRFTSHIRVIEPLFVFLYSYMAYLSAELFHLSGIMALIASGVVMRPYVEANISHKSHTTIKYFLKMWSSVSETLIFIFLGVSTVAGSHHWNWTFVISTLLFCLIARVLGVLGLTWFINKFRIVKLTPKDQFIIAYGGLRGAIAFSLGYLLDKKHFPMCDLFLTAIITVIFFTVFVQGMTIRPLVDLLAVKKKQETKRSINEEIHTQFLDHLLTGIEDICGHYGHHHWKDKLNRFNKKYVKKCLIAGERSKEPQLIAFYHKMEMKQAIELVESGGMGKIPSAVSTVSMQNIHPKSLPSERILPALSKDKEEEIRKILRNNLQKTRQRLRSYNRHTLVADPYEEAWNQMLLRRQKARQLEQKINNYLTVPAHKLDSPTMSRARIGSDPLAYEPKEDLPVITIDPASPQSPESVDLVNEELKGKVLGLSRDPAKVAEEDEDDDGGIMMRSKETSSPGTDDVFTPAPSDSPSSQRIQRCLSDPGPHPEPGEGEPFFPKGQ

Molecule: N=C(N)NC(=O)c1nc(Cl)c(NCC(=O)O)nc1N [Compound 3a]
- Intracellular accumulation in U87 cells [1]: no intracellular fluorescence above mean intracellular background; also recorded: failed to detect; also recorded: did not accumulate
- Stability in control (buffer) digestion [2]: unaffected
- Conclusion (Peptidase: Enkephalinase) [3]: Enkephalinase resistant
- Cleavage by enkephalinase (release of compound 3a) [3]: unaffected; also recorded: stable
- Glioma Effect: antiproliferative concentration ([4]; glioma cells): ≦100 μM antiproliferative
- Proliferation of U87 glioma cells, % of stage-matched controls ([4]; ≦100 μM, 48 h): 22%
- IC50 ([5]; U87 glial cells, sodium-dependent pHi recovery without bicarbonate, read-out: IC50 (μM) +/− SD (NHE inhibition)): 13 ± 7 µM
- Conclusion (Peptidase: Trypsin) [6]: Trypsin resistant
- Cleavage by trypsin (release of compound 3a) [6]: unaffected; also recorded: stable

Molecule: CC(C)C[C@@H](NC(=O)[C@H](Cc1ccccc1)NC(=O)CNC(=O)[C@@H](C)NC(=O)CNc1nc(N)c(C(=O)NC(=N)N)nc1Cl)C(=O)O [Compound 3b, C5am-Gly-D-Ala-Gly-Phe-D-Leu-OH] (H-[X1][dA]GF[dL]-OH)
- Stability in control (buffer) digestion [2]: not cleaved
- Conclusion (Peptidase: Enkephalinase) [3]: Enkephalinase resistant
- Cleavage by enkephalinase (release of compound 3a) [3]: not cleaved; also recorded: resistant
- Conclusion (Peptidase: Trypsin) [6]: Trypsin resistant
- Cleavage by trypsin (release of compound 3a) [6]: not cleaved; also recorded: resistant

Molecule: N=C(NCc1ccc(Cl)cc1Cl)NC(=O)c1nc(Cl)c(N)nc1N [DCB, 2,4-dichlorobenzamil]
- Concentration that killed U87 glioma cells ([7]; U87 glioma cells, C2am-Gly within 24 h): 15 µM
- Glioma Effect: cytotoxic concentration ([7]; glioma cells): 15 μM cytotoxic
- Concentration that killed glioma cells ([7]; glioma cells, amiloride within 48-72 hours): ≥ 20 µM
- Animals dying during the following 12 to 24 h [8]: 4 of 5
- Glioma death within poorly vascularized tumor regions (histology) [8]: extensive glioma death
- Effect of pretreatment on [Ca2+]i after calcium release from mitochondrial stores ([9]; U87 glioma cells, FCCP or oligomycin): increase to cytotoxic levels
- Persistent increase of [Ca2+]i ([9]; pretreatment followed by oligomycin or FCCP): > 800 nM
- Time to enter glioma cells and primary astrocytes [10]: ≤ 150 min
- Rel. Activity [11]: NCX > NHE
- Concentration that inhibits NHE1 and reduces pHi ([5]; U87 glioma cells loaded with BCECF): 50-100 nM

Molecule: Enkephalinase (neutral endopeptidase 24.11, porcine kidney; CalBiochem)
- Enzymatic digestion, LC-MS fragments at 24 h; Conclusion [12]: Enkephalinase-mediated release of 3a
- Enzymatic digestion, LC-MS fragments at 24 h; Conclusion [13]: Enkephalinase resistant
- Enzymatic digestion, LC-MS fragments at 24 h; Conclusion [14]: Enkephalinase resistant
